Measurements published in ChEMBL document CHEMBL1201862, “PubChem BioAssay data set” (2004).
Values joined by “and” are separate entries in the source; they are usually repeats but may differ in a detail not shown here. Identical values can stand only once.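 Dose response: 5 concentrations. Exposure: 48 h. Format: 96-well plates. Endpoint: linear interpolation; highest concentration if not reached. GI50 is the concentration that inhibits growth by half.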 Active and inactive are the calls of the source. No stated cut-off is given here; in the data, active = GI50 up to about 1.1 µM and inactive = higher.

Legend:
Assay in all cases: DTP human tumour cell line panel, 48 h
M14 = tested on: M14
SK-MEL-28 = tested on: SK-MEL-28
TK-10 = tested on: TK-10
SNB-75 = tested on: SNB-75
SN12C = tested on: SN12C
RXF 393 = tested on: RXF 393
MOLT-4 = tested on: MOLT-4
BT-549 = tested on: BT-549
PC-3 = tested on: PC-3
HCT-116 = tested on: HCT-116
KM12 = tested on: KM12
COLO 205 = tested on: COLO 205
SW-620 = tested on: SW-620
K562 = tested on: K562
DU-145 = tested on: DU-145
OVCAR-5 = tested on: OVCAR-5
SK-MEL-2 = tested on: SK-MEL-2
OVCAR-8 = tested on: OVCAR-8
SF-539 = tested on: SF-539
Hs-578T = tested on: Hs-578T

Measured: GI50

Nn1c(CCCCCCCCc2nnc(COc3c(O)ccc4ccccc34)n2N)nnc1COc1c(O)ccc2ccccc12
inactive: M14 > 100 µM | SK-MEL-28 > 100 µM | TK-10 > 100 µM | SNB-75 > 100 µM | SN12C > 100 µM | RXF 393 84.3 µM | MOLT-4 > 100 µM | BT-549 > 100 µM | PC-3 > 100 µM | HCT-116 49.5 µM | KM12 > 100 µM | COLO 205 > 100 µM | SW-620 > 100 µM | K562 > 100 µM | DU-145 > 100 µM | OVCAR-5 > 100 µM | SK-MEL-2 > 100 µM

O=C1/C(=C/c2ccco2)N=C(c2ccccc2)N1c1ccc(S(=O)(=O)Nc2nccs2)cc1
inactive: M14 > 100 µM | OVCAR-8 65.5 µM | TK-10 > 100 µM | SNB-75 > 100 µM | SN12C > 100 µM | RXF 393 69.5 µM | MOLT-4 43.4 µM | SF-539 > 100 µM | BT-549 > 100 µM | PC-3 86.3 µM | HCT-116 > 100 µM | KM12 > 100 µM | COLO 205 > 100 µM | SW-620 > 100 µM | K562 > 100 µM | DU-145 > 100 µM | OVCAR-5 > 100 µM | SK-MEL-2 > 100 µM

CN1C(=O)c2ccccc2C(O)(c2ccccc2)C1(O)c1ccccc1 (configuration not stated)
inactive: M14 > 100 µM | OVCAR-8 > 100 µM | SK-MEL-28 > 100 µM | TK-10 68.7 µM | SNB-75 91 µM | SN12C > 100 µM | RXF 393 83.9 µM | MOLT-4 48.1 µM | SF-539 > 100 µM | BT-549 81.1 µM | PC-3 52.6 µM | HCT-116 95.3 µM | KM12 > 100 µM | COLO 205 > 100 µM | SW-620 > 100 µM | Hs-578T 29.2 µM | K562 > 100 µM | OVCAR-5 > 100 µM | SK-MEL-2 > 100 µM

COC(=O)C1OC(O[C@H]2CC[C@]3(C)[C@H]4CC=C5[C@@H]6CC(C)(C)CC[C@]6(C(=O)OC6OCC(O)C(O)C6OC6OC(C)C(OC7OCC(O)C(OC8OCC(O)C(O)C8O)C7O)C(OC7OCC(O)C(O)C7O)C6O)CC[C@@]5(C)[C@]4(C)CC[C@H]3C2(C)C)C(O)C(OC2OCC(O)C(O)C2O)C1O (some centres not stated)
inactive: M14 1.95 µM and 2.25 µM | OVCAR-8 13.2 µM and 10.4 µM | SK-MEL-28 2.37 µM and 2.07 µM | TK-10 7.35 µM and 11.9 µM | SN12C 2.25 µM and 2.31 µM | MOLT-4 8.24 µM and 4.91 µM | BT-549 3.01 µM and 2.62 µM | PC-3 4.46 µM and 4.32 µM | HCT-116 4.04 µM and 4.85 µM | KM12 3.1 µM and 3.08 µM | COLO 205 1.6 µM and 1.52 µM | SW-620 9.2 µM and 8.04 µM | Hs-578T 16.1 µM and 19.7 µM | K562 4.94 µM and 3.94 µM | DU-145 5.79 µM and 9.29 µM | OVCAR-5 5.31 µM and 4.75 µM | SK-MEL-2 2.22 µM and 2.93 µM

Cc1n[nH]c(=O)n1N1C(=O)c2ccccc2C1=O
inactive: M14 > 100 µM | OVCAR-8 > 100 µM | SK-MEL-28 > 100 µM | TK-10 > 100 µM | SNB-75 26.4 µM | SN12C > 100 µM | MOLT-4 > 100 µM | SF-539 > 100 µM | BT-549 > 100 µM | PC-3 > 100 µM | HCT-116 > 100 µM | KM12 > 100 µM | COLO 205 > 100 µM | SW-620 > 100 µM | Hs-578T > 100 µM | K562 > 100 µM | DU-145 > 100 µM | OVCAR-5 > 100 µM | SK-MEL-2 > 100 µM

CC(C)(C)C1CCC2c3c([nH]c4ccccc34)C3C(=O)N(c4cccc([N+](=O)[O-])c4)C(=O)C3C2C1 (configuration not stated)
inactive: M14 37.6 µM | OVCAR-8 25.7 µM | SK-MEL-28 21 µM | TK-10 38.5 µM | SNB-75 59.6 µM | SN12C 7 µM | RXF 393 54 µM | MOLT-4 6.84 µM | SF-539 49.9 µM | BT-549 17 µM | PC-3 27 µM | HCT-116 11.6 µM | KM12 5.62 µM | COLO 205 21.2 µM | SW-620 57.8 µM | K562 > 100 µM | DU-145 25.9 µM | OVCAR-5 52.2 µM | SK-MEL-2 24.5 µM

CC1OC(n2cnc3c(N)nc(Cl)nc32)C(C)(O)C1O (configuration not stated)
inactive: M14 > 25 µM | OVCAR-8 19.8 µM | TK-10 > 25 µM | SNB-75 1.41 µM | SN12C > 25 µM | RXF 393 > 25 µM | MOLT-4 > 25 µM | SF-539 > 25 µM | BT-549 > 25 µM | HCT-116 > 25 µM | KM12 > 25 µM | COLO 205 > 25 µM | SW-620 > 25 µM | Hs-578T > 25 µM | K562 > 25 µM | DU-145 > 25 µM | OVCAR-5 > 25 µM | SK-MEL-2 > 25 µM

COC(=O)c1cc2c(cc1CC1Cc3cc4c(cc3C1=O)CCC4)CCC2 (configuration not stated)
inactive: M14 66.8 µM | OVCAR-8 74 µM | SK-MEL-28 76 µM | TK-10 73.1 µM | SNB-75 54.1 µM | SN12C 57.5 µM | MOLT-4 13.5 µM | SF-539 58.9 µM | BT-549 40.1 µM | PC-3 10.7 µM | HCT-116 33.4 µM | KM12 32.4 µM | COLO 205 33.3 µM | SW-620 29.4 µM | Hs-578T 15 µM | K562 20.2 µM | DU-145 > 100 µM | OVCAR-5 > 100 µM | SK-MEL-2 36.4 µM

CC1=CC(C)C(O)C(C)/C=C\C(O)C/C=C(/C)C(=O)CC(O)C(C)\C=C/C=C\C=C/C(=O)NC2=C(O)C(=O)c3c(cc(C)c(O)c3C1=O)C2=O (configuration not stated)
inactive: M14 > 100 µM | OVCAR-8 > 100 µM | SK-MEL-28 > 100 µM | TK-10 > 100 µM | SNB-75 25 µM | SN12C > 100 µM | MOLT-4 71.1 µM | SF-539 62.1 µM | BT-549 > 100 µM | PC-3 > 100 µM | HCT-116 58.1 µM | KM12 56.2 µM | COLO 205 > 100 µM | SW-620 > 100 µM | Hs-578T 46 µM | DU-145 76.6 µM | OVCAR-5 > 100 µM | SK-MEL-2 > 100 µM

COC1(CCO)CC=CCC1(CCO)OC (configuration not stated)
inactive: M14 > 100 µM | OVCAR-8 > 100 µM | SK-MEL-28 > 100 µM | TK-10 > 100 µM | SNB-75 > 100 µM | SN12C > 100 µM | MOLT-4 > 100 µM | BT-549 > 100 µM | PC-3 > 100 µM | HCT-116 > 100 µM | KM12 > 100 µM | COLO 205 > 100 µM | SW-620 > 100 µM | Hs-578T > 100 µM | K562 > 100 µM | DU-145 > 100 µM | OVCAR-5 > 100 µM | SK-MEL-2 > 100 µM

CC(C)Sc1nc(C#N)cc2c1CCCC2
inactive: M14 48.6 µM | OVCAR-8 63.5 µM | SK-MEL-28 29.7 µM | TK-10 > 100 µM | SNB-75 > 100 µM | SN12C 51.3 µM | RXF 393 27.7 µM | MOLT-4 19.5 µM | SF-539 42.5 µM | BT-549 99.1 µM | PC-3 38.2 µM | HCT-116 44.7 µM | KM12 28.6 µM | COLO 205 20.1 µM | SW-620 37.8 µM | K562 48.9 µM | DU-145 > 100 µM | OVCAR-5 > 100 µM | SK-MEL-2 23.2 µM

O=C1CCCC1C(O)(C(F)(F)F)C(F)(F)F (configuration not stated)
inactive: M14 > 100 µM | OVCAR-8 > 100 µM | SK-MEL-28 > 100 µM | TK-10 > 100 µM | SNB-75 > 100 µM | SN12C > 100 µM | RXF 393 > 100 µM | MOLT-4 > 100 µM | SF-539 > 100 µM | PC-3 > 100 µM | HCT-116 > 100 µM | KM12 > 100 µM | COLO 205 > 100 µM | SW-620 > 100 µM | Hs-578T > 100 µM | K562 > 100 µM | DU-145 > 100 µM | OVCAR-5 > 100 µM | SK-MEL-2 > 100 µM

COc1ccccc1-c1cc(=O)c2ccc(OC)c(OC)c2o1
inactive: M14 64.3 µM | OVCAR-8 54.6 µM | SK-MEL-28 > 100 µM | TK-10 46.6 µM | SNB-75 70.5 µM | SN12C 63.1 µM | RXF 393 27.1 µM | MOLT-4 60.4 µM | SF-539 > 100 µM | BT-549 76.9 µM | HCT-116 45.9 µM | COLO 205 49.3 µM | SW-620 96.2 µM | Hs-578T 41.7 µM | K562 > 100 µM | DU-145 55.5 µM | OVCAR-5 > 100 µM | SK-MEL-2 70.6 µM

COc1c(Br)cc(/C=C(\C#N)c2cccnc2)cc1Br
inactive: M14 43.4 µM | OVCAR-8 53.8 µM | SK-MEL-28 50.5 µM | TK-10 61.7 µM | SNB-75 > 100 µM | SN12C > 100 µM | RXF 393 51.5 µM | MOLT-4 49.1 µM | SF-539 43.7 µM | BT-549 30.5 µM | PC-3 45.4 µM | HCT-116 > 100 µM | KM12 33.1 µM | COLO 205 34.5 µM | SW-620 38.7 µM | K562 80.9 µM | DU-145 > 100 µM | OVCAR-5 30.3 µM | SK-MEL-2 96.6 µM
